In brackets after ≈: the same amount, converted by molar mass. Values belong to the compound of their own block, whether it stands above or below them.
Experiments:
Assay in all cases: in vitro antibacterial evaluation, MIC by broth dilution
Assay type in all cases: cell-based
[1] = tested on: Staphylococcus sp.; details: broth dilution, 18 hours at 35° C.; for MIC Staphylococcus aureus (ATCC 29213): strain ATCC 29213; for MIC Staphylococcus aureus (GC 1131): strain GC 1131; for MIC Staphylococcus aureus (GC 3051): strain GC 3051; for MIC Staphylococcus aureus (GC 3053): strain GC 3053; for MIC Staphylococcus aureus (GC 4541): strain GC 4541; for MIC Staphylococcus aureus (GC 4542): strain GC 4542; for MIC Staphylococcus aureus-SMITH (GC 4543): strain GC 4543; for MIC Staphylococcus aureus (GC 4544): strain GC 4544; for MIC Staphylococcus aureus (GC 4545): strain GC 4545; for MIC Staphylococcus haemolyticus (GC 4546): strain GC 4546; for MIC Coagulase Negative Staphylococcus (GC 4547): strain GC 4547; for MIC Coagulase Negative Staphylococcus (GC 4548): strain GC 4548; for MIC Coagulase Negative Staphylococcus (GC 4549): strain GC 4549; for MIC Coagulase Negative Staphylococcus (GC 4551): strain GC 4551
Description: (§1) Methods for in vitro Antibacterial Evaluation (Table 1)
(§2) The minimum inhibitory concentration (MIC), the lowest concentration of the antibiotic which inhibits growth of the test organism, is determined by the broth dilution method using Muller-Hinton II […] (Baltimore Biological Laboratories) following the recommendations of the National Committee for Clinical Laboratory Standards [Methods for dilution antimicrobial susceptibility tests for bacteria that grow aerobically, approved standard M7-A2, National Committee for Clinical Laboratory Standards, Villanova, Pa.].
(§3) An inoculum level of 5×10^5 CFU/mL, and a range of antibiotic concentrations (64-0.06 μg/mL) is used. […] The test organisms include a spectrum of Gram-positive bacteria comprised of Staphylococcus sp., Streptococcus sp. and Enterococcus sp. These organisms include recent clinical isolates that are resistant to methicillin, penicillin and/or vancomycin.

[2] = tested on: Streptococcus sp.; details: broth dilution, 18 hours at 35° C.
Description: as §1, §2, §3

[3] = tested on: Enterococcus sp.; details: broth dilution, 18 hours at 35° C.
Description: as §1, §2, §3

[4] = tested on: Escherichia coli; details: 18 hours at 35° C.

- MIC Staphylococcus aureus (ATCC 29213) [1]: 0.5 µg/mL (≈ 0.35 µM)
- MIC Staphylococcus aureus (GC 1131) [1]: 0.5 µg/mL (≈ 0.35 µM)
- MIC Staphylococcus aureus (GC 3051) [1]: 0.5 µg/mL (≈ 0.35 µM)
- MIC Staphylococcus aureus (GC 3053) [1]: 1 µg/mL (≈ 0.7 µM)
- MIC Staphylococcus aureus (GC 4541) [1]: 0.5 µg/mL (≈ 0.35 µM)
- MIC Staphylococcus aureus (GC 4542) [1]: 0.5 µg/mL (≈ 0.35 µM)
- MIC Staphylococcus aureus-SMITH (GC 4543) [1]: <0.12 µg/mL
- MIC Staphylococcus aureus (GC 4544) [1]: 0.5 µg/mL (≈ 0.35 µM)
- MIC Staphylococcus aureus (GC 4545) [1]: 1 µg/mL (≈ 0.7 µM)
- MIC Coagulase Negative Staphylococcus (GC 4547) [1]: 0.5 µg/mL (≈ 0.35 µM)
- MIC Coagulase Negative Staphylococcus (GC 4548) [1]: 0.5 µg/mL (≈ 0.35 µM)
- MIC Coagulase Negative Staphylococcus (GC 4549) [1]: <0.12 µg/mL
- MIC Coagulase Negative Staphylococcus (GC 4551) [1]: 0.5 µg/mL (≈ 0.35 µM)
- MIC Streptococcus agalactiae (GC 4564) [2]: <0.12 µg/mL
- MIC Streptococcus pneumoniae (ATCC 6301) [2]: <0.12 µg/mL
- MIC Streptococcus pneumoniae (GC 1894) [2]: <0.12 µg/mL
- MIC Streptococcus pneumoniae (GC 4565) [2]: <0.12 µg/mL
- MIC Streptococcus pyogenes (GC 4563) [2]: <0.12 µg/mL
- MIC Streptococcus pneumoniae (ATCC 6301) ([2]; inoculum 5×10^5 CFU/mL, strain ATCC 6301): <0.12 µg/mL
- MIC Streptococcus pneumoniae (GC 1894) ([2]; inoculum 5×10^5 CFU/mL, strain GC 1894): <0.12 µg/mL
- MIC Streptococcus pyogenes (GC 4563) ([2]; inoculum 5×10^5 CFU/mL, strain GC 4563): <0.12 µg/mL
- MIC Streptococcus agalactiae (GC 4564) ([2]; inoculum 5×10^5 CFU/mL, strain GC 4564): <0.12 µg/mL
- MIC Streptococcus pneumoniae (GC 4565) ([2]; inoculum 5×10^5 CFU/mL, strain GC 4565): <0.12 µg/mL
- MIC Enterococcus avium (GC 4558) [3]: 0.5 µg/mL (≈ 0.35 µM)
- MIC Enterococcus faecalis (ATCC 29212) [3]: 0.5 µg/mL (≈ 0.35 µM)
- MIC Enterococcus faecalis (GC 2242) [3]: 1 µg/mL (≈ 0.7 µM)
- MIC Enterococcus faecalis (GC 2691) [3]: 1 µg/mL (≈ 0.7 µM)
- MIC Enterococcus faecalis (GC 3059) [3]: 1 µg/mL (≈ 0.7 µM)
- MIC Enterococcus faecalis (GC 4552) [3]: 1 µg/mL (≈ 0.7 µM)
- MIC Enterococcus faecalis (GC 4553) [3]: 0.5 µg/mL (≈ 0.35 µM)
- MIC Enterococcus faecalis (GC 4554) [3]: 1 µg/mL (≈ 0.7 µM)
- MIC Enterococcus faecalis (GC 6189) [3]: 1 µg/mL (≈ 0.7 µM)
- MIC Enterococcus faecium (GC 2243) [3]: 0.5 µg/mL (≈ 0.35 µM)
- MIC Enterococcus faecium (GC 4556) [3]: 1 µg/mL (≈ 0.7 µM)
- MIC Enterococcus faecium (GC 4557) [3]: 0.5 µg/mL (≈ 0.35 µM)
- MIC Enterococcus faecalis (ATCC 29212) ([3]; inoculum 5×10^5 CFU/mL, strain ATCC 29212): 0.5 µg/mL (≈ 0.35 µM)
- MIC Enterococcus faecalis (GC 2242) ([3]; inoculum 5×10^5 CFU/mL, strain GC 2242): 1 µg/mL (≈ 0.7 µM)
- MIC Enterococcus faecium (GC 2243) ([3]; inoculum 5×10^5 CFU/mL, strain GC 2243): 0.5 µg/mL (≈ 0.35 µM)
- MIC Enterococcus faecalis (GC 2691) ([3]; inoculum 5×10^5 CFU/mL, strain GC 2691): 1 µg/mL (≈ 0.7 µM)
- MIC Enterococcus faecalis (GC 3059) ([3]; inoculum 5×10^5 CFU/mL, strain GC 3059): 1 µg/mL (≈ 0.7 µM)
- MIC Enterococcus faecalis (GC 4552) ([3]; inoculum 5×10^5 CFU/mL, strain GC 4552): 1 µg/mL (≈ 0.7 µM)
- MIC Enterococcus faecalis (GC 4553) ([3]; inoculum 5×10^5 CFU/mL, strain GC 4553): 0.5 µg/mL (≈ 0.35 µM)
- MIC Enterococcus faecalis (GC 4554) ([3]; inoculum 5×10^5 CFU/mL, strain GC 4554): 1 µg/mL (≈ 0.7 µM)
- MIC Enterococcus faecium (GC 4556) ([3]; inoculum 5×10^5 CFU/mL, strain GC 4556): 1 µg/mL (≈ 0.7 µM)
- MIC Enterococcus faecium (GC 4557) ([3]; inoculum 5×10^5 CFU/mL, strain GC 4557): 0.5 µg/mL (≈ 0.35 µM)
- MIC Enterococcus avium (GC 4558) ([3]; inoculum 5×10^5 CFU/mL, strain GC 4558): 0.5 µg/mL (≈ 0.35 µM)
- MIC Enterococcus faecalis (GC 6189) ([3]; inoculum 5×10^5 CFU/mL, strain GC 6189): 1 µg/mL (≈ 0.7 µM)
- MIC Escherichia coli (ATCC 25922) [4]: 32 µg/mL (≈ 22.4 µM)
- MIC Escherichia coli (GC 4559) [4]: 32 µg/mL (≈ 22.4 µM)
- MIC Escherichia coli (GC 4560) [4]: 1 µg/mL (≈ 0.7 µM)
Compound: CC(c1ccccc1)C1NC(=O)CNC(=O)C(CO)NC(=O)C(C(O)C2CNC(=N)N2C2OC(CO)C(O)C(O)C2O)NC(=O)C(C(O)C2CNC(=N)N2)NC(=O)C(Cc2ccc(OC3OC(CO)C(OC4OC5COC6(CC7CCC6(C)C7(C)C)OC5C(O)C4O)C(O)C3O)cc2)NC1=O (stereo not drawn) [Example 215]
- MIC Staphylococcus haemolyticus (GC 4546) [1]: 0.5 µg/mL (≈ 0.35 µM)

- MIC Staphylococcus aureus (ATCC 29213) [1]: 8 µg/mL (≈ 5.12 µM)
- MIC Staphylococcus aureus (GC 1131) [1]: 16 µg/mL (≈ 10.2 µM)
- MIC Staphylococcus aureus (GC 3051) [1]: 8 µg/mL (≈ 5.12 µM)
- MIC Staphylococcus aureus (GC 3053) [1]: 16 µg/mL (≈ 10.2 µM)
- MIC Staphylococcus aureus (GC 4541) [1]: 8 µg/mL (≈ 5.12 µM)
- MIC Staphylococcus aureus (GC 4542) [1]: 16 µg/mL (≈ 10.2 µM)
- MIC Staphylococcus aureus-SMITH (GC 4543) [1]: 8 µg/mL (≈ 5.12 µM)
- MIC Staphylococcus aureus (GC 4544) [1]: 16 µg/mL (≈ 10.2 µM)
- MIC Staphylococcus aureus (GC 4545) [1]: 8 µg/mL (≈ 5.12 µM)
- MIC Coagulase Negative Staphylococcus (GC 4547) [1]: 4 µg/mL (≈ 2.56 µM)
- MIC Coagulase Negative Staphylococcus (GC 4548) [1]: 4 µg/mL (≈ 2.56 µM)
- MIC Coagulase Negative Staphylococcus (GC 4549) [1]: 4 µg/mL (≈ 2.56 µM)
- MIC Coagulase Negative Staphylococcus (GC 4551) [1]: 8 µg/mL (≈ 5.12 µM)
- MIC Streptococcus agalactiae (GC 4564) [2]: 0.5 µg/mL (≈ 0.32 µM)
- MIC Streptococcus pneumoniae (ATCC 6301) [2]: 2 µg/mL (≈ 1.28 µM)
- MIC Streptococcus pneumoniae (GC 1894) [2]: 0.25 µg/mL (≈ 0.16 µM)
- MIC Streptococcus pneumoniae (GC 4565) [2]: 2 µg/mL (≈ 1.28 µM)
- MIC Streptococcus pyogenes (GC 4563) [2]: 1 µg/mL (≈ 0.64 µM)
- MIC Streptococcus pneumoniae (ATCC 6301) ([2]; strain ATCC 6301): 2 µg/mL (≈ 1.28 µM)
- MIC Streptococcus pneumoniae (GC 1894) ([2]; strain GC 1894): 0.25 µg/mL (≈ 0.16 µM)
- MIC Streptococcus pyogenes (GC 4563) ([2]; strain GC 4563): 1 µg/mL (≈ 0.64 µM)
- MIC Streptococcus agalactiae (GC 4564) ([2]; strain GC 4564): 0.5 µg/mL (≈ 0.32 µM)
- MIC Streptococcus pneumoniae (GC 4565) ([2]; strain GC 4565): 2 µg/mL (≈ 1.28 µM)
- MIC Enterococcus avium (GC 4558) ([3]; Enterococcus avium (GC 4558)): 4 µg/mL (≈ 2.56 µM)
- MIC Enterococcus faecalis (ATCC 29212) ([3]; Enterococcus faecalis (ATCC 29212)): 16 µg/mL (≈ 10.2 µM)
- MIC Enterococcus faecalis (GC 4552) ([3]; Enterococcus faecalis (GC 4552)): 16 µg/mL (≈ 10.2 µM)
- MIC Enterococcus faecalis (GC 4553) ([3]; Enterococcus faecalis (GC 4553)): 8 µg/mL (≈ 5.12 µM)
- MIC Enterococcus faecalis (GC 4554) ([3]; Enterococcus faecalis (GC 4554)): 32 µg/mL (≈ 20.5 µM)
- MIC Enterococcus faecalis (GC 6189) ([3]; Enterococcus faecalis (GC 6189)): 16 µg/mL (≈ 10.2 µM)
- MIC Enterococcus faecium (GC 2243) ([3]; Enterococcus faecium (GC 2243)): 8 µg/mL (≈ 5.12 µM)
- MIC Enterococcus faecium (GC 4556) ([3]; Enterococcus faecium (GC 4556)): 16 µg/mL (≈ 10.2 µM)
- MIC Enterococcus faecium (GC 4557) ([3]; Enterococcus faecium (GC 4557)): 2 µg/mL (≈ 1.28 µM)
- MIC Enterococcus avium (GC 4558) [3]: 4 µg/mL (≈ 2.56 µM)
- MIC Enterococcus faecalis (ATCC 29212) [3]: 16 µg/mL (≈ 10.2 µM)
- MIC Enterococcus faecalis (GC 2242) [3]: 16 µg/mL (≈ 10.2 µM)
- MIC Enterococcus faecalis (GC 2691) [3]: 16 µg/mL (≈ 10.2 µM)
- MIC Enterococcus faecalis (GC 3059) [3]: 16 µg/mL (≈ 10.2 µM)
- MIC Enterococcus faecalis (GC 4552) [3]: 16 µg/mL (≈ 10.2 µM)
- MIC Enterococcus faecalis (GC 4553) [3]: 8 µg/mL (≈ 5.12 µM)
- MIC Enterococcus faecalis (GC 4554) [3]: 32 µg/mL (≈ 20.5 µM)
- MIC Enterococcus faecalis (GC 6189) [3]: 16 µg/mL (≈ 10.2 µM)
- MIC Enterococcus faecium (GC 2243) [3]: 8 µg/mL (≈ 5.12 µM)
- MIC Enterococcus faecium (GC 4556) [3]: 16 µg/mL (≈ 10.2 µM)
- MIC Enterococcus faecium (GC 4557) [3]: 2 µg/mL (≈ 1.28 µM)
- MIC Enterococcus faecalis (GC 2242) ([3]; strain GC 2242): 16 µg/mL (≈ 10.2 µM)
- MIC Enterococcus faecalis (GC 2691) ([3]; strain GC 2691): 16 µg/mL (≈ 10.2 µM)
- MIC Enterococcus faecalis (GC 3059) ([3]; strain GC 3059): 16 µg/mL (≈ 10.2 µM)
- MIC Escherichia coli (ATCC 25922) [4]: >128 µg/mL
- MIC Escherichia coli (GC 4559) [4]: >128 µg/mL
- MIC Escherichia coli (GC 4560) [4]: 4 µg/mL (≈ 2.56 µM)
Compound: CC(C)=CCCC(C)=CCN=C1NCC(C(O)C2NC(=O)C(C(O)C3CNC(=N)N3)NC(=O)C(Cc3ccc(OC4OC(CO)C(OC5OC6COC7(OC6C(O)C5O)C5CC6CC(C5)CC7C6)C(O)C4O)cc3)NC(=O)C(C(C)c3ccccc3)NC(=O)CNC(=O)C(CO)NC2=O)N1C1OC(CO)C(O)C(O)C1O (stereo not drawn) [Example 82]
- MIC Staphylococcus haemolyticus (GC 4546) [1]: 4 µg/mL (≈ 2.56 µM)
